The results in this text go back to patent US20250382305A1 (PTC THERAPEUTICS, INC., priority 2022, published 2025).

Experiment [1] deals with ATXN3 pre-mRNA. Put plainly: RT-qPCR Assay to Quantify Exon 4 Skipping in ATXN3 pre-mRNA in Cells. It counts as cell-based. The following applies: percent exon 4 skipping in ATXN3 pre-mRNA, RT-qPCR of cell lysates; average IC50. Put shortly:
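IC50 derives from a dose-response fit of percent exon 4 skipping, quantified by RT-qPCR on crude lysates. Compounds tested as 7-point 3.16-fold dilutions in duplicate; cells (10,000/well) were exposed for 24 h at 37 °C before lysis.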
(In qPCR the cycle at which signal appears reflects the starting amount.)

In experiment [2] the test system is Total ATXN3 (tATXN3) protein. Nature of the experiment: Endogenous Total ATXN3 (tATXN3) Protein Assay (MSD immunoassay of cell lysates). The note with it: average IC50, total ATXN3 protein in cell lysate after 48 h with compound (Table 1). It counts as cell-based. The gist of the method:
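By electrochemiluminescent MSD sandwich immunoassay (mouse monoclonal capture, rabbit monoclonal and SULFO-TAG anti-rabbit detection), endogenous ATXN3 was quantified in lysates of cells treated 48 h at 37° C at 10,000 cells/well. Treatment used a 7-point 3.16-fold duplicate dilution series, with average IC50 grouped into star categories.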

pIC50: −log10 of the molar value.

In general, pIC50 refers to the IC50 on a negative log10 scale, so that one unit is a factor of ten. For `N[C@@H]1CCCCC[C@@H]1c1cc2nc(Cl)cc(NCc3cccs3)c2s1` [Compound 88, 2-((1S,2R)-2-aminocycloheptyl)-5-chloro-N-(thiophen-2-ylmethyl)thieno[3,2-b]pyridin-7-amine], the negative logarithm of the IC50 (pIC50) in experiment [1] and in experiment [2] was less than 6.00 throughout.

As for `N[C@@H]1CCC[C@@H](O)[C@H]1c1sc2c(NCc3cccs3)cc(Cl)nc2c1Br` [Compound 355, (1R,2S,3R)-3-amino-2-(3-bromo-5-chloro-7-((thiophen-2-ylmethyl)amino)thieno[3,2-b]pyridin-2-yl)cyclohexan-1-ol], the pIC50 in experiment [1] and in experiment [2] was 6.52 to 7.52 throughout.

As to “2-((1R,2S,6R)-2-amino-6-fluorocyclohexyl)-3-bromo-5-chloro-N-(thiophen-2-ylmethyl)thieno[3,2-b]pyridin-7-amine and 2-((1S,2R,6S)-2-amino-6-fluorocyclohexyl)-3-bromo-5-chloro-N-(thiophen-2-ylmethyl)thieno[3,2-b]pyridin-7-amine [Compound 181]”, the negative logarithm of the IC50 (pIC50) in experiment [1] and in experiment [2] was not below 7.52 each time.

For `N[C@H]1CCCO[C@@H]1c1c(Br)c2nc(Cl)cc(NCc3ccco3)c2n1C(F)F` [Compound 270, 2-((2S,3S)-3-aminotetrahydro-2H-pyran-2-yl)-3-bromo-5-chloro-1-(difluoromethyl)-N-(furan-2-ylmethyl)-1H-pyrrolo[3,2-b]pyridin-7-amine], the pIC50 in experiment [1] and in experiment [2] was 6.52 to 7.52 in each case.

As to `N[C@@H]1COCC[C@H]1c1sc2c(NCc3nccs3)cc(Cl)nc2c1I` [Compound 408, 2-((3S,4R)-3-aminotetrahydro-2H-pyran-4-yl)-5-chloro-3-iodo-N-(thiazol-2-ylmethyl)thieno[3,2-b]pyridin-7-amine], the pIC50 in experiment [1] and in experiment [2] was 6.52 to 7.52 throughout.

Take `N[C@@H]1CC=CC[C@H]1c1c(I)c2nc(Cl)nc(NCc3ccco3)c2n1C(F)F` [Compound 379, 6-((1R,6R)-6-aminocyclohex-3-en-1-yl)-2-chloro-5-(difluoromethyl)-N-(furan-2-ylmethyl)-7-iodo-5H-pyrrolo[3,2-d]pyrimidin-4-amine]: the pIC50 in experiment [1] and in experiment [2] was 6.52 to 7.52 each time.

For the molecule “2-((3R,4S)-3-aminotetrahydro-2H-pyran-4-yl)-5-chloro-7-((thiophen-2-ylmethyl)amino)thieno[3,2-b]pyridine-3-carbonitrile and 2-((3S,4R)-3-aminotetrahydro-2H-pyran-4-yl)-5-chloro-7-((thiophen-2-ylmethyl)amino)thieno[3,2-b]pyridine-3-carbonitrile [Compound 393]”, the pIC50 was not below 7.52 in experiment [1] and 6.00 to 6.52 in experiment [2].

Consider `N[C@@H]1CC=CC[C@H]1c1sc2c(NCc3ccccc3)cc(Cl)nc2c1I` [Compound 345, 2-((1R,6R)-6-aminocyclohex-3-en-1-yl)-N-benzyl-5-chloro-3-iodothieno[3,2-b]pyridin-7-amine], for which the negative-log IC50 (pIC50) in experiment [1] and in experiment [2] was 6.52 to 7.52 throughout.

`N[C@@H]1CCC[C@H]1c1sc2c(NCc3cccs3)cc(Cl)nc2c1I` [Compound 154, 2-((1R,2R)-2-aminocyclopentyl)-5-chloro-3-iodo-N-(thiophen-2-ylmethyl)thieno[3,2-b]pyridin-7-amine]: the pIC50 in experiment [1] and in experiment [2] was less than 6.00 throughout.

As for `N[C@@H]1CCCCC[C@H]1c1sc2c(NCc3cccs3)cc(Cl)nc2c1Cl` [Compound 78, 2-((1R,2R)-2-aminocycloheptyl)-3,5-dichloro-N-(thiophen-2-ylmethyl)thieno[3,2-b]pyridin-7-amine], the pIC50 in experiment [1] and in experiment [2] was less than 6.00 in each case.

Take “2-((2R,3R)-3-aminotetrahydro-2H-pyran-2-yl)-N-benzyl-5-chlorothieno[3,2-b]pyridin-7-amine and 2-((2S,3S)-3-aminotetrahydro-2H-pyran-2-yl)-N-benzyl-5-chlorothieno[3,2-b]pyridin-7-amine [Compound 26]”: the pIC50 in experiment [1] and in experiment [2] was 6.00 to 6.52 in each case.

In the case of “2-((1S,6S)-6-aminocyclohex-3-en-1-yl)-5-chloro-N-(thiophen-2-ylmethyl)thieno[3,2-b]pyridin-7-amine [Compound 448]”, the results for the pIC50 in experiment [1] and in experiment [2] were 6.52 to 7.52 and less than 6.00, respectively.

Turning to `CCc1c([C@@H]2CCCCC[C@H]2N)sc2c(NCc3cccs3)cc(Cl)nc12` (single isomer, unassigned) [Compound 86, 2-((1R,2R)-2-aminocycloheptyl)-5-chloro-3-ethyl-N-(thiophen-2-ylmethyl)thieno[3,2-b]pyridin-7-amine or 2-((1S,2S)-2-aminocycloheptyl)-5-chloro-3-ethyl-N-(thiophen-2-ylmethyl)thieno[3,2-b]pyridin-7-amine], the pIC50 in experiment [1] and in experiment [2] was less than 6.00 throughout.

`N[C@H]1CC=CC[C@@H]1c1sc2c(NCc3ccco3)nc(Cl)nc2c1Cl` [Compound 170, 6-((1S,6S)-6-aminocyclohex-3-en-1-yl)-2,7-dichloro-N-(furan-2-ylmethyl)thieno[3,2-d]pyrimidin-4-amine]: the pIC50 in experiment [1] is more than 7.52; in experiment [2], not below 7.52.

Consider `N[C@H]1CC=CC[C@@H]1c1sc2c(NCc3ccco3)nc(Cl)nc2c1I` [Compound 172, 6-((1S,6S)-6-aminocyclohex-3-en-1-yl)-2-chloro-N-(furan-2-ylmethyl)-7-iodothieno[3,2-d]pyrimidin-4-amine], for which the negative-log IC50 (pIC50) in experiment [1] and in experiment [2] was not below 7.52 each time.

Turning to `N[C@H]1CCCC[C@]1(O)c1sc2c(NCc3cccs3)cc(Cl)nc2c1Cl` [Compound 31, (1R,2S)-2-amino-1-(3,5-dichloro-7-((thiophen-2-ylmethyl)amino)thieno[3,2-b]pyridin-2-yl)cyclohexan-1-ol], the pIC50 in experiment [1] and in experiment [2] was less than 6.00 throughout.

In the case of `N[C@H]1CCCC[C@]1(F)c1sc2c(NCc3ccccc3)cc(Cl)nc2c1Br` [Compound 37, 2-((1R,2S)-2-amino-1-fluorocyclohexyl)-N-benzyl-3-bromo-5-chlorothieno[3,2-b]pyridin-7-amine], the pIC50 is 6.52 to 7.52 in experiment [1] and 6.00 to 6.52 in experiment [2].

`N[C@H]1CCCO[C@@H]1c1c(Cl)c2nc(Cl)cc(NCc3ccco3)c2n1C(F)F` [Compound 273, 2-((2S,3S)-3-aminotetrahydro-2H-pyran-2-yl)-3,5-dichloro-1-(difluoromethyl)-N-(furan-2-ylmethyl)-1H-pyrrolo[3,2-b]pyridin-7-amine]: the negative logarithm of the IC50 (pIC50) is not below 7.52 in experiment [1] and 6.52 to 7.52 in experiment [2].

With `Cc1c([C@H]2CC=CC[C@@H]2N)sc2c(NCc3ccccc3F)cc(Cl)nc12` [Compound 341, 2-((1S,6S)-6-aminocyclohex-3-en-1-yl)-5-chloro-N-(2-fluorobenzyl)-3-methylthieno[3,2-b]pyridin-7-amine], the pIC50 in experiment [1] and in experiment [2] was 6.52 to 7.52 throughout.

On to “2-((1R,6S)-6-amino-2,2-difluorocyclohexyl)-3-bromo-N-((E)-but-2-en-1-yl)-5-chlorothieno[3,2-b]pyridin-7-amine and 2-((1S,6R)-6-amino-2,2-difluorocyclohexyl)-3-bromo-N-((E)-but-2-en-1-yl)-5-chlorothieno[3,2-b]pyridin-7-amine [Compound 425]”, for which the pIC50 in experiment [1] was 6.00 to 6.52; in experiment [2], less than 6.00.

Regarding `N[C@@H]1CC(F)(F)CC[C@@H]1c1sc2c(NCc3cccs3)cc(Cl)nc2c1Br.N[C@H]1CC(F)(F)CC[C@H]1c1sc2c(NCc3cccs3)cc(Cl)nc2c1Br` (mixture of isomers) [Compound 30, 2-((1R,2S)-2-amino-4,4-difluorocyclohexyl)-3-bromo-5-chloro-N-(thiophen-2-ylmethyl)thieno[3,2-b]pyridin-7-amine and 2-((1S,2R)-2-amino-4,4-difluorocyclohexyl)-3-bromo-5-chloro-N-(thiophen-2-ylmethyl)thieno[3,2-b]pyridin-7-amine], the pIC50 in experiment [1] and in experiment [2] was less than 6.00 throughout.

On to `N[C@H]1CCCC[C@H]1c1sc2c(NCc3cccs3)cc(Cl)nc2c1Cl` [Compound 13, 2-((1R,2S)-2-aminocyclohexyl)-3,5-dichloro-N-(thiophen-2-ylmethyl)thieno[3,2-b]pyridin-7-amine], for which the pIC50 in experiment [1] and in experiment [2] was 6.52 to 7.52 each time.

Turning to “2-((1R,2R)-2-amino-4,4-dimethylcyclohexyl)-3-bromo-5-chloro-N-(thiophen-2-ylmethyl)thieno[3,2-b]pyridin-7-amine and 2-((1S,2S)-2-amino-4,4-dimethylcyclohexyl)-3-bromo-5-chloro-N-(thiophen-2-ylmethyl)thieno[3,2-b]pyridin-7-amine [Compound 152]”, the pIC50 in experiment [1] and in experiment [2] was 6.52 to 7.52 in each case.

As for `N[C@H]1CC=CC[C@@H]1c1c(I)c2nc(Cl)nc(NCc3ccccc3)c2n1C(F)F` [Compound 348, 6-((1S,6S)-6-aminocyclohex-3-en-1-yl)-N-benzyl-2-chloro-5-(difluoromethyl)-7-iodo-5H-pyrrolo[3,2-d]pyrimidin-4-amine], the pIC50 in experiment [1] and in experiment [2] was 6.52 to 7.52 each time.

On to `N[C@@H]1CCCCCC[C@H]1c1cc2nc(Cl)cc(NCc3cccs3)c2s1` [Compound 105, 2-((1R,2R)-2-aminocyclooctyl)-5-chloro-N-(thiophen-2-ylmethyl)thieno[3,2-b]pyridin-7-amine], for which the pIC50 in experiment [1] and in experiment [2] was less than 6.00 throughout.

For `N[C@H]1CC=CC[C@@H]1c1sc2c(NCc3nccs3)cc(Cl)nc2c1Cl` [Compound 178, 2-((1S,6S)-6-aminocyclohex-3-en-1-yl)-3,5-dichloro-N-(thiazol-2-ylmethyl)thieno[3,2-b]pyridin-7-amine], the pIC50 in experiment [1] and in experiment [2] was not below 7.52 in each case.
